Reference: article PMC3317823, “Identification and characterization of a novel thermostable pyrethroid-hydrolyzing enzyme isolated through metagenomic approach” (Microbial Cell Factories, 2012)

Biological target: Sys410 (uncultured bacterium, UniProt H9CDG2)
Experiment: spectrophotometric p-nitrophenol release at […] nm, Michaelis-Menten fit
Details: pH 6.5, potassium phosphate 50 mM, 55°C, gum arabic and Triton X-100 in substrate solution

Chain of Sys410 (H9CDG2 1-280 limits assumed): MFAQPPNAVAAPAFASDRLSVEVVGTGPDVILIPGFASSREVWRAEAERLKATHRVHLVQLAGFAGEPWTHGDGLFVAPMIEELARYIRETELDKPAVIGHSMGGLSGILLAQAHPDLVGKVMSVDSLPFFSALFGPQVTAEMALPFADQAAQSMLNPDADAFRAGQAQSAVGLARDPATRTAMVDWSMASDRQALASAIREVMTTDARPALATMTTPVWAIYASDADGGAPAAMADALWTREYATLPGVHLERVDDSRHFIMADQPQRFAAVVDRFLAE

Row | Km (paper labels caproate as C8, chain length uncertain) [µM] | Km (paper labels caprylate as C6, chain length uncertain) [µM] | Compound
1 | 57.6 ± 1.9 | – | CCCCCC(=O)Oc1ccc([N+](=O)[O-])cc1 [C8, ρ-nitrophenyl caproate]
2 | – | 33.2 ± 2.1 | CCCCCCCC(=O)Oc1ccc([N+](=O)[O-])cc1 [C6, ρ-nitrophenyl caprylate]
